Patent publication US6358943B1, “N-substituted indolines as estrogenic agents” (American Home Products Corporation, priority 1999, dated 2002)

Molecular target: T1, estrogen receptor (ER) (Homo sapiens, UniProt P03372)
T1 construct: expressed in transfected cells; host or cells: CHO cells (cytosol)
T1 sequence (P03372 1-595): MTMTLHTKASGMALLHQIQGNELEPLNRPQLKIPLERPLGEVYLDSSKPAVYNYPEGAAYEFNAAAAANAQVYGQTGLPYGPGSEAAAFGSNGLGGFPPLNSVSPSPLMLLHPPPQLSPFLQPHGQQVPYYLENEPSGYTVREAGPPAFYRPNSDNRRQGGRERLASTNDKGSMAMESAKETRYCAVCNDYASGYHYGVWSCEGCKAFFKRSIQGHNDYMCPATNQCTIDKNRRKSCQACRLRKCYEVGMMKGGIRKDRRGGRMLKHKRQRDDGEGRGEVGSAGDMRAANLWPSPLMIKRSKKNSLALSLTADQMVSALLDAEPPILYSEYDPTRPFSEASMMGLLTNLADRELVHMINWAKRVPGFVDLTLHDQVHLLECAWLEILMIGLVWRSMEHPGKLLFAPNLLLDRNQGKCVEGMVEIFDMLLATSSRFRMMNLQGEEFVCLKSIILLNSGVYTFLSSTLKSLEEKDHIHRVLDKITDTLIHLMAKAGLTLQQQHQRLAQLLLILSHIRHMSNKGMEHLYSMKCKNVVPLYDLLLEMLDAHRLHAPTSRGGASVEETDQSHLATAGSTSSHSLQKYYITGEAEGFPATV
Assay: Receptor Binding Assay: competition with [3H]17β-estradiol, cytosol of CHO cells overexpressing the estrogen receptor
Conditions: 0.8 nM [3H]17β-estradiol, 12 competitor concentrations, room temperature 2.5 h, CHO cell cytosol

CC1(C)c2cc(O)ccc2N(Cc2ccc(OCCN3CCCCCC3)cc2)C1c1ccc(O)cc1 (stereo not shown) [Example No. 11, 1-[4-(2-Azepan-1-yl-ethoxy)-benzyl]-2-(4-hydroxy-phenyl)-3,3-dimethyl-2,3-dihydro-1H-indol-5-ol]
IC50: 350 nM
